In publication PMC9224473 (International Journal of Molecular Sciences, 2022):
Values after ≈ are worked out from the molar mass of the structure shown.

What was measured:
P. aeruginosa 659 = assay: MIC, broth microdilution, clinical strain; assay type: cell-based, Pseudomonas aeruginosa; conditions: Pseudomonas aeruginosa, 659, read-out: MIC P. aeruginosa 659, 19 h, 35 °C
S. aureus ATCC 6538 = assay: MIC, broth microdilution, standard strain; assay type: cell-based, Staphylococcus aureus; conditions: Staphylococcus aureus, ATCC6538, 19 h, 35 °C
[1] = test system: S. epidermidis ATCC 12228; assay: MIC, broth microdilution, standard strain; assay type: cell-based, Staphylococcus epidermidis; conditions: Staphylococcus epidermidis, ATCC12228, 19 h, 35 °C
S. aureus ATCC 25923 = assay: MIC, broth microdilution, standard strain; assay type: cell-based, Staphylococcus aureus; conditions: Staphylococcus aureus, ATCC25923, 19 h, 35 °C
S. aureus T 5591 = assay: MIC, broth microdilution, clinical strain; assay type: cell-based, Staphylococcus aureus; conditions: Staphylococcus aureus, T5591, 19 h, 35 °C
E. coli 510 = assay: MIC, broth microdilution, clinical strain; assay type: cell-based, Escherichia coli; conditions: Escherichia coli, 510, 19 h, 35 °C
S. epidermidis KR 4243 = assay: MIC, broth microdilution, clinical strain; assay type: cell-based, Staphylococcus epidermidis; conditions: Staphylococcus epidermidis, KR4243, 19 h, 35 °C
[2] = test system: SW480 (human primary colon cancer); assay: MTT cytotoxicity assay; assay type: cell-based; conditions: Homo sapiens, SW480, 72 h, mean SD
Method in brief: (§1)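 Cells were seeded at 1 × 10^4/well, adhered 24 h, then treated for 72 h at 37 °C/5% CO2 against an untreated control. Viability was read as MTT reduction (0.5 mg/mL, 4 h; formazan in DMSO/isopropanol, 570 nm) relative to control, three repeats, with IC50 estimated from the data.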

[3] = test system: HepG2 (human liver cancer); assay: MTT cytotoxicity assay; assay type: cell-based; conditions: Homo sapiens, HepG2, 72 h, mean SD
Method in brief: as §1

[4] = test system: HaCaT (human immortal keratinocyte cell line); assay: MTT cytotoxicity assay; assay type: cell-based; conditions: Homo sapiens, HaCaT, 72 h, mean SD, read-out: IC50 HaCaT (normal cells)
Method in brief: as §1

[5] = test system: HCT116 (human colon cancer); assay: MTT cytotoxicity assay; assay type: cell-based; conditions: Homo sapiens, HCT-116, 72 h, mean SD
Method in brief: as §1

S. pasteuri KR 4358 = assay: MIC, broth microdilution, clinical strain; assay type: cell-based, Staphylococcus pasteuri; conditions: Staphylococcus pasteuri, KR4358, 19 h, 35 °C
S. aureus NCTC 4163 = assay: MIC, broth microdilution, standard strain; assay type: cell-based, Staphylococcus aureus; conditions: Staphylococcus aureus, NCTC4163, 19 h, 35 °C
P. aeruginosa ATCC 15442 = assay: MIC, broth microdilution, standard strain; assay type: cell-based, Pseudomonas aeruginosa; conditions: Pseudomonas aeruginosa, ATCC15442, 19 h, 35 °C
E. coli ATCC 25922 = assay: MIC, broth microdilution, standard strain; assay type: cell-based, Escherichia coli; conditions: 35 °C; for MIC: Escherichia coli, ATCC25922, 19 h
[6] = test system: S. epidermidis ATCC 35984; assay: MIC, broth microdilution, standard strain; assay type: cell-based, Staphylococcus epidermidis; conditions: Staphylococcus epidermidis, ATCC35984, 19 h, 35 °C
[7] = test system: SW620 (human metastatic colon cancer); assay: MTT cytotoxicity assay; assay type: cell-based; conditions: Homo sapiens, SW-620, 72 h, mean SD
Method in brief: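 SW620 lymph-node metastatic colon cancer cells (MEM, 10% FBS, 37 °C/5% CO2) treated with compounds; viability by MTT reduction, formazan dissolved in DMSO/isopropanol 1:1, read at 570 nm.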

S. aureus ATCC 29213 = assay: MIC, broth microdilution, standard strain; assay type: cell-based, Staphylococcus aureus; conditions: Staphylococcus aureus, ATCC29213, 19 h, 35 °C
E. coli 520 = assay: MIC, broth microdilution, clinical strain; assay type: cell-based, Escherichia coli; conditions: Escherichia coli, 520, 19 h, 35 °C
E. coli 600 = assay: MIC, broth microdilution, clinical strain; assay type: cell-based, Escherichia coli; conditions: Escherichia coli, 600, 19 h, 35 °C
S. aureus T 5595 = assay: MIC, broth microdilution, clinical strain; assay type: cell-based, Staphylococcus aureus; conditions: Staphylococcus aureus, T5595, 19 h, 35 °C
[8] = test system: standard Gram-positive Staphylococci; assay: MIC, panel of standard Gram-positive strains; assay type: cell-based, Staphylococcus; conditions: range over all standard Gram-positive Staphylococci

| Structure (SMILES) | MIC (P. aeruginosa 659) [µg/mL] | MIC (S. aureus ATCC 6538) [µg/mL] | MIC [1] [µg/mL] | MIC (S. aureus ATCC 25923) [µg/mL] | MIC (S. aureus T 5591) [µg/mL] | MIC (E. coli 510) [µg/mL] | MIC (S. epidermidis KR 4243) [µg/mL] | IC50 [2] [µM] | IC50 [3] [µM] | IC50 [4] [µM] | IC50 [5] [µM] | MIC (S. pasteuri KR 4358) [µg/mL] | MIC (S. aureus NCTC 4163) [µg/mL] | MIC (P. aeruginosa ATCC 15442) [µg/mL] | MIC (E. coli ATCC 25922) [µg/mL] | MIC [6] [µg/mL] | IC50 [7] [µM] | MIC (S. aureus ATCC 29213) [µg/mL] | MIC (E. coli 520) [µg/mL] | MIC (E. coli 600) [µg/mL] | further results |
| --- | --- | --- | --- | --- | --- | --- | --- | --- | --- | --- | --- | --- | --- | --- | --- | --- | --- | --- | --- | --- | --- |
| CC(C)[C@@H]1CC[C@@H](C)C[C@H]1OC(=O)CCCCCN1CCN(c2cc3c(cc2F)c(=O)c(C(=O)O)cn3C2CC2)CC1 [Compound 6, 1-cyclopropyl-6-fluoro-7-{4-[6-((1R,2S,5R)-2-isopropyl-5-methylcyclohexyloxy)-6-oxohexyl]piperazin-1-yl}-4-oxo-1,4-dihydroquinoline-3-carboxylic acid] | > 256 | 4 (≈ 6.85 µM) | 8 (≈ 13.7 µM) | 8 (≈ 13.7 µM) | 8 (≈ 13.7 µM) | > 256 | 8 (≈ 13.7 µM) | 46.2 ± 1.8 | 53.7 ± 0.9 | > 100 | 29.5 ± 2.1 | 8 (≈ 13.7 µM) | 4 (≈ 6.85 µM) | 256 (≈ 439 µM) | 32 (≈ 54.8 µM) | 8 (≈ 13.7 µM) | 38.1 ± 2.5 | 8 (≈ 13.7 µM) | 64 (≈ 110 µM) | 64 (≈ 110 µM) | melting point: 210.8 to 212.4 °C; MIC (S. aureus T 5595): 8 µg/mL (≈ 13.7 µM) |
| Cc1ccc(C(C)C)c(OC(=O)CCCN2CCN(c3cc4c(cc3F)c(=O)c(C(=O)O)cn4C3CC3)CC2)c1 [Compound 12, 1-cyclopropyl-6-fluoro-7-{4-[4-(2-isopropyl-5-methylphenoxy)-4-oxobutyl]piperazin-1-yl}-4-oxo-1,4-dihydroquinoline-3-carboxylic acid] | 64 (≈ 116 µM) | 1.6 (≈ 2.91 µM) | 0.8 (≈ 1.46 µM) | 0.8 (≈ 1.46 µM) | 1 (≈ 1.82 µM) | 128 (≈ 233 µM) | 2 (≈ 3.64 µM) | 33.7 ± 3.5 | 43.4 ± 3.1 | 59.1 ± 3.1 | 28.6 ± 0.1 | 1 (≈ 1.82 µM) | 1.6 (≈ 2.91 µM) | 12.8 (≈ 23.3 µM) | 2 to 4 (≈ 3.64 to 7.28 µM) | 0.8 (≈ 1.46 µM) | 61.8 ± 0.1 | 0.8 (≈ 1.46 µM) | 8 (≈ 14.6 µM) | 4 (≈ 7.28 µM) | MIC range against standard Gram-positive strains [8]: 0.8 to 1.6 µg/mL; MIC E. coli ATCC 25922 (E. coli ATCC 25922; 19 h): 3.2 µg/mL (≈ 5.82 µM); MIC (S. aureus T 5595): 4 µg/mL (≈ 7.28 µM) |
